From the supplement of paper PMC10307832

Key:
Experiment in all cases: relative viability (nuclei count vs DMSO), 5 days (fraction); higher = more cells survive
[1] = compound: CN1CCN(CC1)C2=CC(=C(C=C2)NC3=NC=C4C(=N3)N(C5=CC=CC=C5C(=O)N4C)C)OC [XMD8-85] + CC(=O)c1c(C)c2cnc(Nc3ccc(N4CCNCC4)cn3)nc2n(C2CCCC2)c1=O [Palbociclib] (partner 0.5 µM)
Procedure, shortened: (§1)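 Relative viability equals treated-well nuclei counts divided by vehicle-well nuclei counts. Counts came from 4× images of lung cancer cell lines grown in 1536-well plates for 5 days after pin-tool dosing on the day after seeding. Dosing used one drug alone or a fixed anchor-drug dose plus five library-drug doses (not always all listed) in √10 steps, and values are medians of duplicate plates.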

[2] = compound: O=C(O)C(Cc1ccccc1[N+](=O)[O-])=NNc1nc(-c2ccc(Cl)c(Cl)c2)cs1 (mixture of isomers) [4EGI-1] + COc1cccc2cc(-c3nc([C@H]4CC[C@H](C(=O)O)CC4)n4ncnc(N)c34)[nH]c12 [OSI-027] (partner 0.5 µM)
Procedure, shortened: as §1

[3] = compound: O=C(O)C(Cc1ccccc1[N+](=O)[O-])=NNc1nc(-c2ccc(Cl)c(Cl)c2)cs1 (mixture of isomers) [4EGI-1] + Cc1nc(NC(=O)N2CCC[C@H]2C(N)=O)sc1-c1ccnc(C(C)(C)C(F)(F)F)c1 [Alpelisib] (partner 2 µM)
Procedure, shortened: as §1

[4] = compound: O=C(O)C(Cc1ccccc1[N+](=O)[O-])=NNc1nc(-c2ccc(Cl)c(Cl)c2)cs1 (mixture of isomers) [4EGI-1] + Nc1ncn([C@H]2C[C@H](O)[C@@H](CO)O2)c(=O)n1 [Decitabine] (partner 2 µM)
Procedure, shortened: as §1

## NCI-H1792
[1]; first compound 0.253 µM
  relative viability: 0.642
[1]; first compound 2.53 µM
  relative viability: 0.835
[1]; first compound 8 µM
  relative viability: 0.551
[2]; first compound 0.5 µM
  relative viability: 0.886
[2]; first compound 1.581 µM
  relative viability: 0.75
[2]; first compound 5 µM
  relative viability: 0.62
[2]; first compound 15.81 µM
  relative viability: 0.579
[2]; first compound 50 µM
  relative viability: 0.503
[3]; first compound 0.5 µM
  relative viability: 0.765
[3]; first compound 1.581 µM
  relative viability: 0.684
[3]; first compound 5 µM
  relative viability: 0.667
[3]; first compound 15.81 µM
  relative viability: 0.533
[3]; first compound 50 µM
  relative viability: 0.469
[4]; first compound 0.5 µM
  relative viability: 0.568
[4]; first compound 1.581 µM
  relative viability: 0.715
[4]; first compound 5 µM
  relative viability: 0.6
[4]; first compound 15.81 µM
  relative viability: 0.488
[4]; first compound 50 µM
  relative viability: 0.369
